Experimental data as given in patent US12421212B2, “Substituted benzenecarboxamides as IL-17A modulators” (DiCE Alpha, Inc., priority 2019, dated 2025).

Target: T1, IL-17A/A (Homo sapiens, UniProt Q16552)
T1 construct: purchased Genscript Z03228
T1 sequence (Q16552 24-155): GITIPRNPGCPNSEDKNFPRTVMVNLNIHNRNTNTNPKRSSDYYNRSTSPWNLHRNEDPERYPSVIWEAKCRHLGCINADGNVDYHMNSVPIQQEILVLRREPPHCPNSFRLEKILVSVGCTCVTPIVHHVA
Assay: IL-17A/A HEK-Blue Cell Assay
Assay type: cell-based
Conditions: HEK-Blue IL-17A reporter cell line, SEAP readout at A630, 20 hours incubation with IL-17A/A, top concentration 10 uM, 1 uM or 0.3 uM; for IC50: read-out: IL-17A/A inhibition (pIC50) (converted)

IC50	Compound	IL-17A/A inhibition (pIC50)
10 to 100 nM	CCc1nonc1C(=O)N[C@H](C(=O)Nc1ccc([C@H](C)[C@@H](NC(=O)C2(F)CCC2)C(=O)N2CCN(C)[C@H](C)C2)cc1F)[C@H]1CC[C@H](C)CC1 [Compound 505]	
10 to 100 nM	CCC(=O)N[C@@H](C(=O)N1CCN(CCO)CC1)[C@@H](C)c1ccc(NC(=O)[C@@H](NC(=O)c2ccnn2CC)[C@H]2CC[C@H](C)CC2)c(F)c1 [Compound 423]	
100 to 10000 nM	CCC(=O)N[C@H](Cc1ccc(NC(=O)[C@@H](NC(=O)c2conc2CC)[C@H]2CC[C@H](C)CC2)c(F)c1)C(=O)N1CCN(C)CC1 [Compound 630]	
100 to 10000 nM	CCC(=O)N[C@@H](C(=O)N1CCN(C)CC1)[C@@H](C)c1ccc(NC(=O)[C@@H](NC(=O)c2ccnn2C(C)C)C2CCCCC2)cc1 [Compound 633]	
10 to 100 nM	CCC(=O)N[C@@H](C(=O)N1CCN(C)CC1)[C@@H](C)c1ccc(NC(=O)[C@@H](NC(=O)c2csc3cnccc23)C2CCCCC2)c(F)c1 [Compound 249]	
10 to 100 nM	CCn1nccc1C(=O)N[C@H](C(=O)Nc1ccc([C@H](C)[C@@H](NC(=O)C2CC2)C(=O)N2CCN(C)CC2)cc1F)[C@H]1CC[C@H](C)CC1 [Compound 469]	
< 10 nM	CCC(=O)N[C@@H](C(=O)N1CCN(C)CC1)[C@@H](C)c1ccc(NC(=O)[C@@H](NC(=O)c2ccnn2C(C)C)C2CCCCCC2)c(F)c1 [Compound 241]	
10 to 100 nM	CCC(=O)N[C@H](Cc1ccc(NC(=O)[C@@H](NC(=O)c2ccnn2CC)C2CCCCCC2)c(F)c1)C(=O)N1CCN(C)CC1 [Compound 235]	
< 10 nM	CCC(=O)N[C@@H](C(=O)N1CCN(C)C[C@H]1C)[C@@H](C)c1ccc(NC(=O)[C@@H](NC(=O)c2nonc2CC)[C@H]2CC[C@H](C)CC2)c(F)c1 [Compound 457]	
10 to 100 nM	CCn1nccc1C(=O)N[C@H](C(=O)Nc1ccc([C@H](C)[C@@H](NC(=O)[C@@H]2CCCO2)C(=O)N2CCN(C)CC2)cc1F)[C@H]1CC[C@H](C)CC1 [Compound 477]	
10 to 100 nM	CCC(=O)NC(C(=O)N1CCN(C(C)C)CC1)[C@@H](C)c1ccc(NC(=O)[C@@H](NC(=O)c2ccnn2CC)[C@H]2CC[C@H](C)CC2)c(F)c1 (single isomer, unassigned) [Compound 368]	
10 to 100 nM	CCC(=O)N[C@@H](C(=O)N1CCN(C)CC1)[C@@H](C)c1ccc(NC(=O)[C@@H](NC(=O)c2ccnn2C2COC2)[C@H]2CC[C@H](C)CC2)c(F)c1 [Compound 545]	
100 to 10000 nM	CCC(=O)N[C@@H](C(=O)N1CCN(C)CC1)[C@@H](C)c1ccc(NC(=O)C(NC(=O)c2nonc2CC)C(C)c2ccccc2Cl)c(F)c1 (stereo partly shown) [Compound 521]	
	CCC(=O)N[C@@H](C(=O)N1CCN(C)CC1)[C@@H](C)c1ccc(NC(=O)[C@@H](NC(=O)C(F)(F)C2CCNCC2)C2CCCCC2)c(F)c1 [Compound 733]	X2b (compounds were evaluated up to 1 uM and inhibited activity at 1 uM by less than 20%)
	CCC(=O)N[C@@H](C(=O)N1CCN(C)CC1)[C@@H](C)c1ccc(NC(=O)C(NC(=O)c2nonc2CC)C(OC)c2ccc(F)cc2)c(F)c1 (single isomer, unassigned) [Compound 609]	X2b (compounds were evaluated up to 1 uM and inhibited activity at 1 uM by less than 20%)
10 to 100 nM	CCC(=O)N[C@H](Cc1ccc(NC(=O)[C@@H](NC(=O)c2ccnn2CC)C2CCCCC2)c(F)c1)C(=O)N1CCC(C)(O)CC1 [Compound 382]	
10 to 100 nM	CCC(=O)N[C@@H](C(=O)N1CCN(C)CC1)[C@@H](C)c1ccc(NC(=O)[C@@H](NC(=O)c2csc3ncccc23)C2CCCCC2)c(F)c1 [Compound 250]	
100 to 10000 nM	CCn1nccc1C(=O)N[C@H](C(=O)Nc1ccc([C@H](C)[C@@H](NC(=O)c2cnc(C)n2C)C(=O)N2CCN(C)CC2)cc1F)C1CCCCC1 [Compound 678]	
	CCC(=O)N[C@H](Cc1ccc(NC(=O)[C@@H](Nc2nccn3nccc23)C2CCCCC2)c(F)c1)C(=O)N1CCN(C)CC1 [Compound 540]	X2b (compounds were evaluated up to 1 uM and inhibited activity at 1 uM by less than 20%)
